Assay results from BigSolDB 2.1.

Cc1nc2n(c(=O)c1CCN1CCC(c3noc4cc(F)ccc34)CC1)CCCC2
solubility (mole fraction)
Details	278.15 K	283.15 K	288.15 K	293.15 K	298.15 K	303.15 K	308.15 K	313.15 K
in acetone	0.000769	0.00111	0.00135	0.00166	0.00208	0.00251	0.00309	0.0039
in ethanol	0.000876	0.00107	0.00133	0.00156	0.00209	0.00259	0.00333	0.00427
in ethyl acetate	0.00113	0.00144	0.00165	0.00207	0.00248	0.00297	0.00373	0.00464
in isobutyl acetate	0.000791	0.00106	0.00129	0.0015	0.00183	0.00226	0.00266	0.0033
in isopropanol	0.00047	0.0006	0.000714	0.000853	0.00111	0.00134	0.00193	0.00271
in isopropyl acetate	0.000742	0.000884	0.00102	0.00125	0.0015	0.00186	0.00225	0.0027
in methanol	0.00204	0.00226	0.00273	0.00331	0.00407	0.00506	0.00623	0.00787
in methyl acetate	0.00124	0.00153	0.0018	0.00219	0.00264	0.00329	0.00397	0.00489
in n-butanol	0.00144	0.00183	0.00225	0.00291	0.00368	0.00479	0.00621	0.00792
in n-butyl acetate	0.00112	0.00129	0.00159	0.00189	0.00241	0.00282	0.00341	0.00386
in n-propanol	0.00111	0.00149	0.00199	0.00248	0.0031	0.00409	0.00532	0.00683
in n-propyl acetate	0.00116	0.00147	0.00166	0.00202	0.00242	0.00288	0.00357	0.00424
in sec-butanol	0.00187	0.00244	0.00286	0.00361	0.00464	0.00604	0.00769	0.00987
